Test results as given in the Biogen ADME set (Fang et al. 2023).
≈ marks a conversion by molar mass, not a printed value.

Conditions: for aqueous solubility: pH 6.8

SMILES	intrinsic clearance, human liver microsomes [mL/min/kg]	intrinsic clearance, rat liver microsomes [mL/min/kg]	MDR1-MDCK efflux ratio	aqueous solubility [µg/mL]
O=c1[nH]c2ccccc2n1C1CCN(Cc2nc(Cc3ccccc3)no2)CC1	69.7	857		
Fc1cccc(Cn2nnc(-c3ccccc3)n2)c1F			0.358	0.1 (≈ 0.367 µM)
C=C1C[C@@H]2[C@H](CC[C@]3(C)C(=O)CC[C@@H]23)[C@@]2(C)C=CC(=O)C=C12	≤ 4.74	≤ 10.7	0.494	
CN(C)c1cncc(-c2ccc(S(=O)(=O)N(C)C)cc2)n1	80.8	2430	0.61	
CCn1nc(Cc2ccc(OC)cc2)nc1Cc1sc(C)nc1C	21.4	233	2.11	28.7 (≈ 83.9 µM)
CN(C)S(=O)(=O)N1CCC(c2ccc3c(NCc4ccccc4F)n[nH]c3n2)CC1			3.07	0.15 (≈ 0.347 µM)
CCN(C(=O)CN1CCNC(=O)C1)c1ccc(F)cc1	≤ 4.74	≤ 10.7	49.4	34.8 (≈ 125 µM)
C[C@]1(O)CN(C(=O)Cn2cnc3ccccc32)CC[C@@H]1Oc1ccccc1	5.54	181	47.2	
COCC(=O)Nc1cccc(-n2cccc2)c1	205	129	0.498	50.9 (≈ 221 µM)
c1ccc(-c2nsc(N3CCCN(c4nccs4)CC3)n2)cc1	145	1470	0.656	29.6 (≈ 86.2 µM)
Cc1cc(C)nc(NC(=O)N(C)C2CCC2)c1	92.6	177	0.503	41.2 (≈ 177 µM)
COc1cc(C)cc(OC)c1-c1ccc(-c2nn[nH]n2)cc1	≤ 4.74	83.2	1.97	
Cc1cc2cc(C(=O)N(C)CCC(=O)O)oc2cc1C	≤ 4.74	≤ 10.7	1.72	47 (≈ 171 µM)
COc1ccccc1-n1cc2c(c1-c1ccccc1Br)c(=O)n(C)c(=O)n2C			2.26	0.81 (≈ 1.84 µM)
COc1ccc(Cc2nnn[nH]2)cc1F	≤ 4.74	≤ 10.7		
CCn1c(=O)c2cc(OC)c(OC)cc2n(Cc2ccc(Cl)cc2)c1=O				0.4 (≈ 1.07 µM)
CC1=C(C(=O)OCc2ccc3c(c2)OCO3)C(c2ccccc2)NC(=O)N1 (configuration not stated)				1.88 (≈ 5.12 µM)
O=C(NCCN1CCc2ccccc2C1=O)c1ccncc1	13.6	240		
CN(Cc1ccc(Br)o1)C(=O)CN1CCCC1=O	≤ 4.74	16.7	2.67	70 (≈ 222 µM)
Cc1ccc(F)cc1NCc1csc(-c2cnn(C)c2)n1	40.2	402		
O=C(NC[C@@H]1CCN(c2ccccc2)C1)N1CCc2ccccc2C1	170	2160	0.706	11.9 (≈ 35.5 µM)

SMILES	intrinsic clearance, human liver microsomes [mL/min/kg]	intrinsic clearance, rat liver microsomes [mL/min/kg]	MDR1-MDCK efflux ratio	aqueous solubility [µg/mL]
O=C(NC1CCCCC1)C1CCN(c2ccncc2Cl)CC1	22.4	257	0.838	22 (≈ 68.4 µM)
COc1ccc(CN(C)c2ncncc2Br)cc1O	25.9	211		55.6 (≈ 172 µM)
Fc1ccc(CN2CCCN(c3ccc4nnnn4n3)CC2)cc1	31.9	620	0.606	
Cc1cccc(CNC(=O)Cn2c(=O)oc3cccnc32)c1	≤ 4.74	≤ 10.7		
COc1cccc(C)c1C(=O)N(C)CCCn1cccn1	38	500	3.55	
O=C(Nc1ccc2c3c(cccc13)CC2)c1ccnc(-n2cncn2)c1	124	164	0.25	10.7 (≈ 31.4 µM)
CCc1cc2c(N3CCN(Cc4nccn4C)CC3)ncnc2s1				66.8 (≈ 195 µM)
O=C(Nc1ccc(F)cc1F)N1CCn2c1nc1ccccc12	78.5	90.1	0.468	6.1 (≈ 19.4 µM)
Cc1cc(C(=O)N(C)C2CCSCC2)c(=O)n(C)c1C	29.1	56.4	39	
COc1ccc(CC(=O)Nc2ccc(F)nc2)cc1	16.5	76.5	0.624	
c1cnc(N2CCC(Cc3ccncc3)CC2)nc1	10.9	146	0.575	58.1 (≈ 228 µM)
Cc1cc(C(=O)Nc2cccc(-c3cnco3)c2)c2c(C)nn(C)c2n1	29	75.1	1.08	8.73 (≈ 25.1 µM)
CCc1cnc(CN2C(=O)NC3(CCC3)C2=O)o1	≤ 4.74	51.9	3.63	32.4 (≈ 130 µM)
CC(C)c1noc(-c2ccc(N(C)Cc3cccnc3)nc2)n1	45.6	459	0.511	36.6 (≈ 118 µM)
COc1cc(OC)c2c(=O)cc(CCC(=O)O)oc2c1	≤ 4.74	≤ 10.7		
Cc1cc(C)c2c(C(=O)N3CC4(CNC(=O)N4)C3)cc(C)nc2c1	≤ 4.74	30.7	8.46	
Cc1nc(C#N)c(C#N)n1Cc1csc(-c2cccs2)n1	88.8	1710		32.2 (≈ 104 µM)
CNC(=O)c1cn(C)nc1CC1CCN(Cc2cnc(-c3ccc(OC)cc3)nc2)CC1	≤ 4.74	23.9	20.6	57.5 (≈ 132 µM)
COc1ccc(-c2cccc(C3CCCN(C(=O)C4CCCC4)C3)n2)cc1 (configuration not stated)	175	1980	0.717	2.45 (≈ 6.72 µM)
NC1(c2noc(-c3cccnc3)n2)CCCCCC1	≤ 4.74	444		
COc1ccc(C(=O)C2CCN(CC(=O)N(Cc3nc4c(c(=O)[nH]3)COCC4)CC3CC3)CC2)cc1	10.9	45.5	53.8	94.5 (≈ 191 µM)

SMILES	intrinsic clearance, human liver microsomes [mL/min/kg]	intrinsic clearance, rat liver microsomes [mL/min/kg]	MDR1-MDCK efflux ratio	aqueous solubility [µg/mL]
COc1ncccc1NC(=O)c1cccc(C)n1	150	184		23.9 (≈ 98.2 µM)
CNC(=O)c1ccc(N2CCCc3cc(OC)ccc3C2)nn1	11.8	860	0.886	
COc1cc2cc3c(nc2cc1OC)OCCN(C1CCCCC1)C3	33.2	1680	1.3	
N#Cc1ccc(N2CCc3c(ncn3C3CC3)C2)nc1	13.4	63.7	0.877	45.5 (≈ 172 µM)
c1nc(N2CCC3(CCCCC3)C2)c2cn[nH]c2n1	8.33	710	0.8	
CC(C)n1ccc(C(=O)N2CCS(=O)(=O)C(C)(C)C2)n1	≤ 4.74	33.7	2.42	46.4 (≈ 155 µM)
CNC(=O)c1cc(-c2ccccc2)no1				37 (≈ 183 µM)
O=C(CNC(=O)c1ccccc1Cl)Nc1cccc2c1CCCC2	60	1840		
Cc1nnc(NC(=O)c2nn(-c3ccc(F)cc3)c3c2CCCC3)s1	42	227		2.9 (≈ 8.11 µM)
COc1cc(CN(C)C(=O)Nc2cccc(C)c2C)ccc1O	15.5	137		51.8 (≈ 165 µM)
COc1ccc(CN(C)C(=O)C2(C#N)CCC2)cc1				56.6 (≈ 219 µM)
Cc1nccc(-c2cccc(NCC(=O)NCC(=O)N3CCCC3)c2)n1	≤ 4.74	16.2	43.4	69.5 (≈ 197 µM)
O=C(O)c1cc2cc(O)c(O)cc2c(C(=O)c2ccc(O)c(O)c2)n1	35.5	110		57.9 (≈ 170 µM)
O=C(CCn1ccc2ccccc21)N1CCC(n2c(=O)[nH]c3ccccc32)CC1	269	5450		
CCOc1ccc(S(=O)(=O)N(CC)CC(=O)Nc2ccc3c(c2)OCO3)cc1			0.853	0.44 (≈ 1.08 µM)
Nc1nc(NCCNc2ncc(-c3ncc[nH]3)c(-c3ccc(Cl)cc3Cl)n2)ccc1[N+](=O)[O-]				29.9 (≈ 61.6 µM)
O=C(NCCc1ccc2c(c1)OCO2)Nc1ccncc1	8.32	27.3	3.6	46.5 (≈ 163 µM)
c1cncc(-c2ccnn2CN2CCOCC2)c1				17.3 (≈ 71 µM)
O=C(c1ccc(Cl)cc1)N1CCC[C@@H](C(=O)N2CCc3ccccc3C2)C1	360	2530	2.44	
O=C(CCc1cccs1)Nc1ccc(N2CCOCC2)cn1	21.6	49.2	0.618	32.2 (≈ 101 µM)
